What all share (format): biochemical
One test deals with T1, Aβ (1-42) (Homo sapiens, UniProt P05067).
T1 construct: Required Aβ (1-42)(California Peptide) was dried from its hexafluoroisopropanol (HFIP) stock solution; purchased California Peptide
As to the kind of experiment: BATYM assay, Aβ (1-42) aggregation, Thioflavin T fluorescence. The procedure:
Required Aβ (1-42)(California Peptide) was dried from its hexafluoroisopropanol (HFIP) stock solution. The Aβ (1-42) was dissolved in dimethylsulfoxide (DMSO) and then mixed with phosphate buffered saline (PBS) (pH 7.4). The mixed Aβ (1-42) solution was filtered through a […] Omnipore membrane syringe filter (Millipore, Bedford, MA). The compound to be tested in DMSO (50 times concentrate) was put into each well (0.5 µL/well) of a 96-well plate. The Aβ (1-42) solution was added into each well (24.5 µL/well). The plate was centrifuged at 1,000 g for 5 minutes and incubated at 37°C for 1 day (Aβ 1-42; final concentration 100 µM).
After incubation Thioflavin T (ThT) (30 µM) solution in glycine-NaOH buffer (pH 8.5, 50 mM) was added into each well (250 µL/well), fluorescence was measured (ex. 440/20 nm; em 485/20 nm) using a fluorescence plate reader. The inhibitory activity was calculated as the reduction of fluorescence with the following formula: Inhibition (%) = {(F(Aβ)-F(Aβ+compound)}/{F(Aβ)-F (solvent+compound)} × 100 [formula]
The IC50s (concentration of test compound required to cause a 50% inhibition of aggregation) were calculated by a curve fitting program using the following equation. The data were obtained from two different experiments in triplicate. Inhibition (x) = 100-100/{1 + (x/IC50)^n }, [formula] x = concentration of tested compound (M), IC50 = (M), n = Hill coefficient.

The target in another test is T2, Aβ (1-40) peptide (Homo sapiens, UniProt P05067).
T2 construct: 10 µL 0.5 mg/mL Aβ (1-40) peptide in 20% HFIP
T2 sequence (P05067 672-711): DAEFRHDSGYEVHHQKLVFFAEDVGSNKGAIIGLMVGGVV
Briefly: BAPA (Beta-Amyloid Peptide Aggregation, pH 6.0), filtration endpoint assay. The protocol: BAPA (Beta-Amyloid Peptide Aggregation
This assay is used to provide a measure of inhibition by a compound against the aggregation behavior of the beta amyloid peptide.
The purpose of this assay is to provide a higher volume method of assaying the amount of beta amyloid aggregation using an endpoint assay based on filtration. In this assay, hexafluoroisopropanol (HFIP) is used to break down the initial amyloid peptide to a monomer state and use a concentration of 33 µM which is high enough so that aggregation will occur at pH 6.0 in several hours.
β-Amyloid Peptide Aggregation. pH 6 0 (BAPA)
In a 96-well plate (Costar 3794), we add 25 µL 50 mM Phosphate Buffer, pH 6.0, 10 µL 0.5 mg/mL Aβ (1-40) peptide in 20% HFIP + 0.1 µL/assay radioiodinated ^125I Aβ (1-40) [^125I Aβ(1-40)], and 1 µL of the compound to be tested starting at 50 mM with a concentration of DMSO <1%. Then, we incubate for 2 to 4 hours at room temperature. We stop the reaction with 200 µL of 50 mM phosphate buffer, pH 6.0, and filter it through a 0.2 µm 96-well filter plate (Millipore MAGU N22) We wash the filter plate with 100 µL of the same phosphate buffer. Aggregation was detected on a Microbeta counter after impregnating the filters with Meltilex (1450-441) and is corrected for background

For test [1], the target named is T3, Aβ(1-40) (Homo sapiens, UniProt P05067). Briefly: BASST (Beta-Amyloid Self-seeding, ThioflavinT), inhibition of self-seeded amyloid fibril growth. Further details: 30 µM soluble Aβ (1-40) in deionized water in assay buffer. The note with it: 30 µM soluble Aβ (1-40), 37°C, 3 to 5 hours, thioflavin T fluorescence, letter in parentheses = lot of compound (no letter = Lot P). The procedure:
BASST (Beta-Amyloid Self-seeding, ThioflavinT)
(§1) An assay for inhibitors of self-seeded amyloid fibril growth
Assay Buffer - 50 mM sodium phosphate, pH 7.5, 100 mM NaCl, 0.02% NaN3, 1 M urea (filter and store at 4°C).
Soluble Aβ (1-40) - 2.2 mg/mL in deionized H2O (store in aliquots at -20°C, keep on ice when thawed) will self-seed after 1 week storage. Typically, the solution should be stored until no lag phase is seen in the assay.
Final assay conditions: 30 µM soluble Aβ (1-40) in deionized water in assay buffer. Compound to be tested is dissolved in DMSO, typically 5-50 mM stock, such that the final concentration of DMSO is <1% v/v in the assay.
Assay: Reaction mixture for 50 assays (on ice) comprised of 1 µL of soluble Aβ (1-40) + 13.5 µL assay buffer per assay. The following are the amounts of the components of the reaction mixture that result in each of the 50 assay wells. 50 µL soluble Aβ (1-40) 675 µL assay buffer
• 1) Prepare the reaction mix above by mixing the components and storing on ice. • 2) Pipet 14.5 µL of reaction mixture into each of 50 wells of a polystyrene U-bottom 96-well microtiter plate (Coming 25881-96) on ice. • 3) Add 1.7 µL of diluted compound to be tested to each well in a column of eight, including solvent control. Serial 3-fold dilutions from 1 mM (100 µM final) in assay buffer -urea = 7 dilutions + zero. Each 96-well plate can therefore accommodate 11 samples + 1 Congo Red control (0.039-5 µM final in 2-fold steps). • 4) Seal the plate with aluminum film and incubate for 10 minutes on ice. • 5) Raise the temperature to 37°C and incubate for 3 to 5 hours (depends on the lot of the peptide). • 6) Remove the aluminum film and add 250 µL/well of 5 µM thioflavin T (ThT) [T-3516, Sigma-Aldrich] in 50 mM glycine-NaOH, pH 8.5. Read fluorescence on a plate reader (ex = 440 nm/20 nm; em = 485 nm/20 nm) within 5 minutes.

Test [2] addresses T3, Aβ(1-40). As to the kind of experiment: BASSR (Beta-Amyloid Self-Seeding Radioassay), inhibition of self-seeded amyloid fibril growth. The note with it: 30 µM soluble Aβ (1-40) + 125I-labeled Aβ(1-40), 37°C, 3 to 5 hours, several values in a cell = repeat values, letter in parentheses = lot of compound (no letter = Lot P), (ppt), (v-shape) flags. Details: Soluble Aβ(1-40) peptide (Bachem, Torrance, CA); purchased Bachem, Torrance, CA. The procedure:
BASSR (Beta-Amyloid Self-Seeding Radioassay)
as §1
Assay Buffer - 50 mM sodium phosphate, pH 7.5, 100 mM NaCl, 0.02% NaN3, 1 M urea (filter and store at 4°C)
Soluble Aβ(1-40) peptide (Bachem, Torrance, CA) - 2.2 mg/mL in deionized H2O (stored in aliquots at -20°C, keep on ice when thawed) will self-seed after 1 week storage. Typically, the solution should be stored until no lag phase is seen in the assay.
^125I-labeled Aβ (1-40) - 150K-350K cpm/µL in 100% acetonitrile -0.1% trifluoroacetic acid (TFA) -1% β-mercaptoethanol (aliquots stored at -20°C) ^125I-labeled Aβ(1-40) can be made in accordance with the procedure set forth by H. LeVine, III in Neurobiol. Aging, 16:755 (1995), which is hereby incorporated by reference, or this reagent may be purchased from Amersham, Arlington Heights, Illinois.
Final assay conditions: 30 µM soluble Aβ (1-40) in deionized water in assay buffer + 20-50K cpm ^125I-labeled Aβ(1-40) per assay. Compound to be tested is dissolved in dimethylsulfoxide (DMSO), typically 5-50 mM stock, such that the final concentration of DMSO is <1% v/v in the assay.
Assay: Reaction mixture for 50 assays (on ice) is comprised of 0.1-0.2 µL of ^125I-labeled A^125I-labeled Aβ(1-40) + 1 µL of soluble Aβ (1-40) + 13.5 µL assay buffer per assay. The following are the amounts of the components of the reaction mixture sufficient for 50 assay wells. 5-10 µL ^125I-labeled Aβ (1-40) dried down 675 µL assay buffer 50 µL soluble Aβ (1-40)
• 1) Prepare reaction mixture above by mixing components and storing on ice. • 2) Pipet 14.5 µL of reaction mixture into each of 50 wells on a polypropylene U-bottom 96-well microtiter plate on ice (Costar 3794). • 3) Add 1.7 µL, of diluted compound to be tested to each well in a column of eight, including solvent control. Serial 3-fold dilutions from 1 mM (100 µM final) in assay buffer -urea = 7 dilutions + zero. Each 96-well plate can therefore accommodate 11 samples + 1 Congo Red control (0.039-5 µM final in 2-fold steps). • 4) Seal the plate with aluminum film (Beckman 538619) and incubate for 10 minutes on ice. • 5) Raise the temperature to 37°C and incubate for 3 to 5 hours (depending on the lot of the peptide). • 6) Remove the aluminum film and add 200 µL/well of ice cold assay buffer with urea, collecting the radiolabeled fibrils by vacuum filtration through 0.2 µm pore size GVWP filters in 96-well plates (Millipore MAGV N22, Bedford, MA). Determine the radioactivity of the filters using standard methods well-known to those skilled in the art.

[3] abbreviates: Aβ 1-42 final concentration 100 µM, 37°C, 1 day, letter in parentheses = lot of compound (no letter = Lot P), read-out: BATYM IC50.
Setting [4] is: Aβ (1-40) 33 µM, pH 6.0, 2 to 4 hours at room temperature; letter in parentheses = lot of compound (no letter = Lot P); read-out: BAPA IC50.
[5] abbreviates: read-out: BASST IC50 (converted).
Where [6] appears, read: read-out: BATYM IC50, Aβ 1-42 final concentration 100 µM, 37°C, 1 day, letter in parentheses = lot of compound (no letter = Lot P).
The mark [7] stands for this setting: read-out: BAPA IC50; Aβ (1-40) 33 µM, pH 6.0, 2 to 4 hours at room temperature; letter in parentheses = lot of compound (no letter = Lot P).

Where “and” joins values, the source holds several entries; their conditions need not be identical. Identical values can stand only once. Like-named read-outs stand apart in the source and are kept apart here. Where only a bound is given, the exact number is not on record here.

T3 sequence (P05067 672-711): as above
T1 sequence (P05067 672-713): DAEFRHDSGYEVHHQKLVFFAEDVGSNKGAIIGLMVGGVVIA

In the case of “4-Methoxy-5-nitro-2-[2-(3,4,5-trimethoxyphenyl)-2,3-dihydro-1H-isoindol-5-ylamino]benzoic acid [Example 3]”, the IC50 on Aβ (1-42) (setting [3]) was 17.4 µM; at Aβ (1-40) peptide (setting [4]) it was 64 µM; at Aβ(1-40) [1] (setting [5]) it was 3000 nM and 2100 nM.

On to `COc1ccc(N2Cc3ccc(Nc4ccccc4C(=O)O)cc3C2)c(OC)c1OC` [Example 1, 2-[2-(2,3,4-Trimethoxy-phenyl)-2,3-dihydro-1H-isoindol-5-ylamino]-benzoic acid], for which the IC50 at Aβ (1-42) (setting [3]) was 11.3 µM and 46.4 µM and 59.7 µM; at Aβ (1-40) peptide (setting [4]), 72 µM; on Aβ(1-40) [1] (setting [5]), 2 µM and 1.6 µM and 3 µM (2×) and 15 µM (2×).

Turning to `O=C(O)c1cc([N+](=O)[O-])ccc1Nc1ccc2c(c1)CN(c1ccc(Cl)c(Cl)c1)C2` [Example 5, 2-[2-(3,4-Dichlorophenyl)-2,3-dihydro-1H-isoindol-5-ylamino]-5-nitro-benzoic acid], the IC50 on Aβ(1-40) [2] (read-out: BASSR IC50 (converted)) was 5 µM and 4.1 µM and 3 µM; on Aβ (1-42) (setting [3]) it was 11.4 µM; at Aβ(1-40) [1] (setting [5]) it was 3000 nM.

For the compound `O=C(O)c1cc([N+](=O)[O-])ccc1Nc1ccc2c(c1)CN(c1cccc(Cl)c1)C2` [Example 11, 2-[2-(3-Chloro-phenyl)-2,3-dihydro-1H-isoindol-5-ylamino]-5-nitro-benzoic acid], the IC50 was 12.6 µM at Aβ (1-42) (setting [6]); more than 100 µM at Aβ (1-40) peptide (setting [7]); 800 nM and 1000 nM at Aβ(1-40) [1] (read-out: BASST IC50).

With `O=C(O)c1ccccc1Nc1ccc2c(c1)CN(c1ccccc1)C2` [Example 13, 2-(2-Phenyl-2,3-dihydro-1H-isoindol-5-ylamino)-benzoic acid], the IC50 on Aβ(1-40) [2] (read-out: BASSR IC50) was > 100 µM and 52 µM and 60 µM; at Aβ (1-42) (setting [6]) it was 90.2 µM and 60 µM and > 100 µM and 79.7 µM and 83 µM.

As for `O=C(O)c1cc([N+](=O)[O-])ccc1Nc1ccc2c(c1)CN(c1cccc(Cl)c1)C2` [Example 14, 2-[2-(3-Chloro-phenyl)-2,3-dihydro-1H-isoindol-5-ylamino]-5-nitro-benzoic acid], the IC50 was 12.6 µM at Aβ (1-42) (setting [6]); more than 100 µM at Aβ (1-40) peptide (setting [7]); 800 nM and 1000 nM at Aβ(1-40) [1] (read-out: BASST IC50).

As to `O=C(O)c1cccnc1Nc1ccc2c(c1)CN(c1ccc(Cl)c(Cl)c1)C2` [Example 24, 2-[2-(3,4-Dichloro-phenyl)-2,3-dihydro-1H-isoindol-5-ylamino]-nicotinic acid], the IC50 at Aβ(1-40) [2] (read-out: BASSR IC50) was 18 µM; on Aβ(1-40) [1] (read-out: BASST IC50) it was 300 nM.

The record behind these values is patent publication EP1192131B1, “METHOD OF INHIBITING AMYLOID PROTEIN AGGREGATION AND IMAGING AMYLOID DEPOSITS USING ISOINDOLINE DERIVATIVES” (Warner-Lambert Company LLC, priority 1999, dated 2000).
